We go through 100 molecules from ChEMBL document CHEMBL3507680, “University of Dundee, Gates Library screen for HepG2 cell viability”.

The nature of this data set: Human HepG2 cell viability assay in 384 well format. In kind it is toxicity, cell-based. More on the design: dose 125 nL, time 70.5 hour; concentration not given beside the values. As to conditions: HepG2 cells, read-out: Inhibition.
`CCc1ncc(C(=O)N2CCN(C(=O)COc3ccccc3)CC2)cn1`: the cytotoxicity at 70.5 h was -3.1%.

Turning to `Cc1nc(C(=O)N2CCCC2c2c(C)nn(C)c2C)cs1` (stereo not given), the cytotoxicity at 70.5 h is -3.9%. Take `COCCNc1cc(-c2cccc(C(=O)O)c2C)c2cc[nH]c2n1`: the cytotoxicity at 70.5 h is -11.2%. Regarding `CC(C)c1n[nH]c(C2CN(C(=O)C3=COCC3)CCO2)n1` (stereo not given), the cytotoxicity at 70.5 h is -3.87%. Take `Cc1cccc(-c2nccnc2C2CCCN(C)C2)c1` (stereo not given): the cytotoxicity at 70.5 h is -2.49%. Regarding `Cc1occc1CNC(=O)NCCN(C)C1CCCC1`, the cytotoxicity at 70.5 h is -0.13%. `Cc1ccc(-c2ccc(CC3NCCN(C)C3=O)cc2)cc1` (stereo not given): the cytotoxicity at 70.5 h was found to be 20.9%. Under `COCCO[C@H]1CCN(C(=O)c2cnoc2C)[C@H]1Cc1cnn(C)c1` stands -5.22%.

`CC(C)SCCn1ccc2[nH]c(=O)c(C#N)cc2c1=O`: the cytotoxicity at 70.5 h is -8.8%. Next, `O=C1[C@@H]2CCN(Cc3ccoc3)C[C@@H]2OCCN1Cc1cccnc1`: -20.5%.

With `O=C(Cc1ccccn1)N1CCCC(c2nccn2CC2CCC2)C1` (stereo not given), the cytotoxicity at 70.5 h is -24.3%.

For the molecule `CN(Cc1cccnc1)Cc1cn2c(n1)CN(C1CCOC1)CC2` (stereo not given), the cytotoxicity at 70.5 h was -6.14%.

For `CC(C)(C)c1n[nH]c(C2CN(C(=O)CCc3ccco3)CCO2)n1` (stereo not given), the cytotoxicity at 70.5 h was 1.28%. Next, `CC[C@@]1(O)CCN(C(=O)c2ccc(-n3cnnc3)cc2)C[C@H]1O`: 20.9%. For the molecule `CC(C)CN1CCC2(CC1)CC(NS(C)(=O)=O)c1ccccc1O2` (stereo not given), the cytotoxicity at 70.5 h stood at 3.23%. Under `CN1CC=C(c2noc(CCC(=O)N3CCCC3)n2)CC1` stands 7.74%. Regarding `CS(=O)(=O)N1Cc2ccccc2CC2(CCN(Cc3ccccc3)C2)C1` (stereo not given), the cytotoxicity at 70.5 h was -9.03%. Take `CN1CC(c2ccccc2)CC12CCN(C(=O)c1ccc(Cl)cc1)CC2` (stereo not given): the cytotoxicity at 70.5 h stood at 7.42%. On to `CC[C@@H](CO)Nc1nccc(-c2cnc3sc(C)cn3c2=O)n1`, for which the cytotoxicity at 70.5 h is 15.2%.

In the case of `CCS(=O)(=O)N1CCN(Cc2cccnc2)c2nc(C)ccc2C1`, the cytotoxicity at 70.5 h came to 5.16%. Turning to `COc1cccc(CN(C)Cc2c(C)noc2C)c1OC`, the cytotoxicity at 70.5 h is -3.33%. Next, `COc1ccc(C(CC(=O)O)NC(=O)c2cc(C)on2)cc1` (stereo not given): -1.84%; `CC(NCc1ccccc1Cl)c1ccc(OCC(=O)NC2CC2)cc1` (stereo not given): 0.704%.

Take `O=C(CCc1ccsc1)NCC1CCN(Cc2cccs2)CC1`: the cytotoxicity at 70.5 h is -4.26%.

In the case of `Cn1cc(-c2cnc(N3CCOCC3)nc2)cc1C(=O)NC1CC1`, the cytotoxicity at 70.5 h worked out at 23.6%. On to `Cc1c(Cl)c(C(=O)NC(C)CN2CCOCC2)nn1C` (stereo not given), for which the cytotoxicity at 70.5 h is 6.43%. Next, `CCn1c(Cn2cncn2)nnc1C1CCN(Cc2ccccn2)CC1`: 6.14%. Turning to `O=C(Nc1ccnc2ccnn12)c1ccc(N2CCC(O)CC2)cc1`, the cytotoxicity at 70.5 h was 6.12%. For the molecule `COC(=O)NCCC(=O)NCC1(c2cccc(Cl)c2)CC1`, the cytotoxicity at 70.5 h is -6.53%. Next, `CC(C)NC(=O)CC(C)NCc1ccc(F)cc1Cl` (stereo not given): -3.7%; `COc1cc(Cl)ccc1C(=O)NCC(=O)Nc1nccs1`: -5.69%; `CC(C)c1nc(C2CCCN(C(=O)c3ccc4c(c3)COC4)C2)no1` (stereo not given): 0.421%. Under `Cc1cc(C(C)NC(=O)CCn2nnc3ccccc3c2=O)c(C)o1` (stereo not given) stands -5.41%.

Turning to `CNc1nc(C)cc(NC2CCCN(C3Cc4ccccc4C3)C2)n1` (stereo not given), the cytotoxicity at 70.5 h is 14.9%. Turning to `Cc1cc(NC(=O)N2CCN(C)CC2C)n(Cc2ccccc2)n1` (stereo not given), the cytotoxicity at 70.5 h is -9.75%. Regarding `CC(C)Nc1nc(N2CCOCC2)nc2c1CN(Cc1ccoc1)CC2`, the cytotoxicity at 70.5 h is -12.3%. For the molecule `CC(C)Oc1ccc(CNC(=O)c2cc(C(N)=O)cs2)cc1F`, the cytotoxicity at 70.5 h was -12.2%. On to `CCOc1cc(CN(C)CCC(=O)OC)ccc1OC(F)F`, for which the cytotoxicity at 70.5 h was -2.34%. As for `Cc1ccccc1OCCCC(=O)NCC1CN(C)CCO1` (stereo not given), the cytotoxicity at 70.5 h is -1.6%. As for `Cc1nc(C2CCCN2C(=O)c2ccc3c(c2)nc(C)n3C)no1` (stereo not given), the cytotoxicity at 70.5 h is 3.45%.

`Cc1n[nH]c(C2CN(C(=O)CCc3ccsc3)CCO2)n1` (stereo not given): the cytotoxicity at 70.5 h was -5.2%. Turning to `CN(Cc1ccco1)C[C@H]1OC[C@@H]2CN(c3ncc(F)cn3)CC[C@@H]21`, the cytotoxicity at 70.5 h was -1.81%.

`Cc1ccc(C(=O)NC(CN2CCCC2)c2ccccc2)c(=O)[nH]1` (stereo not given): the cytotoxicity at 70.5 h was -3.04%.

As for `CC(=O)N1CCC1c1cc(N2CC(O)C2)nc(C)n1` (stereo not given), the cytotoxicity at 70.5 h was -11.3%. Consider `Cc1ccc(NC2(C(=O)N3CCn4cncc4C3)CCCCC2)cc1C`, for which the cytotoxicity at 70.5 h was -12.1%. For the molecule `c1cn(-c2cnc(C3CCCNC3)cn2)cn1` (stereo not given), the cytotoxicity at 70.5 h is 22.8%.

`N#CC1CCCN(c2ncnc3c2CCN(Cc2ccccc2)CC3)C1` (stereo not given): the cytotoxicity at 70.5 h was determined as 2.53%. For `COc1ccc(CCNC2CCCN(c3ccc(C)nn3)C2)cc1` (stereo not given), the cytotoxicity at 70.5 h is -7.85%.

Take `CSc1ccc(OC(C)C(=O)Nc2c(C)n[nH]c2C)cc1` (stereo not given): the cytotoxicity at 70.5 h was -3.26%. As to `CCC1c2ccccc2CCN1CCNS(C)(=O)=O` (stereo not given), the cytotoxicity at 70.5 h was -4.6%. As for `CCCn1ccnc1CN1CCCC(CC)(CO)C1` (stereo not given), the cytotoxicity at 70.5 h is 26.9%. `O=C(Nc1ccc(-n2cncn2)c(F)c1)C1CCN(C(=O)C2CC2)CC1`: the cytotoxicity at 70.5 h came to 1.9%. On to `O=C(O)C1(Cc2cccc(-c3ccc(F)c(F)c3)c2)CCOCC1`, for which the cytotoxicity at 70.5 h is -19.2%. For the molecule `COc1ccc(CNC(=O)CN2CCc3ccccc32)cc1`, the cytotoxicity at 70.5 h is 27%. Next, `CCC[C@H]1CN(S(C)(=O)=O)C[C@@H]1NC(=O)COC(C)C`: -5.47%; `CC(=O)N1C[C@@H](c2ccsc2)[C@@H]2CN(Cc3ccccc3C)CC[C@@H]21`: 18.9%. As to `CC(C)C(C)(C#N)NC(=O)CN1CCCN(Cc2ccccc2F)CC1` (stereo not given), the cytotoxicity at 70.5 h is -3.81%. As to `COc1ccccc1-n1cc(C(=O)NCCCn2ccnn2)cn1`, the cytotoxicity at 70.5 h was -8.35%.

As for `CC(c1cccc(S(N)(=O)=O)c1)N(C)CCOc1ccccc1` (stereo not given), the cytotoxicity at 70.5 h is -16.8%. In the case of `O=C(O)CSc1nnc(-c2ccn[nH]2)n1-c1ccccc1Cl`, the cytotoxicity at 70.5 h was -6.93%. `O=C(C1CCOCC1)N1CCC2(CCNCC2)C1`: the cytotoxicity at 70.5 h is -11.8%. Consider `Cc1ncc2c(n1)CCN(Cc1nc(Cc3ccccc3)no1)C2`, for which the cytotoxicity at 70.5 h came out at 1.16%. For the molecule `O=C(C1CCC2(CCN(CC3CCOCC3)CC2)O1)N1CCCC1` (stereo not given), the cytotoxicity at 70.5 h stood at 4.83%. Regarding `O=C(NCc1cn2c(n1)CN(Cc1ccncc1)CC2)C1CCC1`, the cytotoxicity at 70.5 h was determined as 8.23%.

On to `Cn1ccc(C(=O)NC2CCC23CCN(C(=O)N2CCCC2)CC3)c1` (stereo not given), for which the cytotoxicity at 70.5 h is -1.08%. With `CCc1nc(CN2CCN(CC(O)c3ccccc3)CC2)no1` (stereo not given), the cytotoxicity at 70.5 h is 17.3%. `Cc1ccc(-n2ncc(C(=O)N3CCCC3c3cnn(C)c3)c2C)cc1` (stereo not given): the cytotoxicity at 70.5 h was 11.4%. In the case of `CC(C)C(O)CNC(=O)Nc1ccc(F)c(Cl)c1` (stereo not given), the cytotoxicity at 70.5 h is -0.302%. On to `Cc1n[nH]c(C)c1CCc1ccc(S(C)(=O)=O)cc1`, for which the cytotoxicity at 70.5 h was -13.7%.

For `CCOc1ncccc1NC(=O)c1cc(C)sc1C`, the cytotoxicity at 70.5 h was -11%. `Cc1ccc(N2CC[C@@H]3[C@@H]2CCN3C(=O)Cc2ccccc2)nn1`: the cytotoxicity at 70.5 h is 5.36%. Under `O=C(NCCNc1cc(N2CCCC2)cnn1)Nc1ccccc1F` stands -2.71%. With `CN(C)C(=O)CN1CCOCC2(C1)CN(c1ncccn1)CCO2` (stereo not given), the cytotoxicity at 70.5 h was determined as 16.4%.

For `Cc1cc(Br)ccc1C(=O)Nc1c(C(N)=O)n[nH]c1C`, the cytotoxicity at 70.5 h was -9.24%. With `CC(C)c1cc(N2CC[C@H](F)C2)n2nccc2n1`, the cytotoxicity at 70.5 h came to 2.77%. Consider `CNc1cccc(C2CCCN(C(=O)c3cncs3)C2)n1` (stereo not given), for which the cytotoxicity at 70.5 h is -4.52%.

For `Cc1nn2cccnc2c1C(=O)NCc1ccnc(OCC2CC2)c1`, the cytotoxicity at 70.5 h is -12.1%. Next, `Cc1cc(C)n(C2CN(Cc3ccccn3)C2)n1`: -9.82%. In the case of `CS(=O)(=O)CCn1ccc(NCc2ccc(C#N)cc2)n1`, the cytotoxicity at 70.5 h is -0.713%. On to `c1ccc(CN2Cc3nccn3CC(Cn3cncn3)C2)nc1` (stereo not given), for which the cytotoxicity at 70.5 h is 2.19%. Under `Cc1c(Br)c(C(F)(F)F)nn1C(C)C(=O)O` (stereo not given) stands -11.2%.

As to `Cc1cccc(CN2CCN(c3ncnc4[nH]cnc34)CC2CCO)n1` (stereo not given), the cytotoxicity at 70.5 h worked out at 9.72%. `c1ccc(CN2CC[C@H]3CO[C@H](CNc4ncccn4)[C@H]3C2)cc1`: the cytotoxicity at 70.5 h is -5.27%.

Turning to `CCc1nc(C2CCCN(C(=O)c3ccc(OC(C)C)nc3)C2)no1` (stereo not given), the cytotoxicity at 70.5 h amounted to 17.6%. Consider `CCCNC(=O)C1CCN(CC(O)c2ccc(C(F)(F)F)cc2)CC1` (stereo not given), for which the cytotoxicity at 70.5 h is -5.86%.

`O=C(c1cc(F)cc(F)c1)N1C[C@H]2CNC[C@H]2C1`: the cytotoxicity at 70.5 h is -13.4%. On to `c1cc(CN2CCOCC3(CCN(C4CCOCC4)C3)C2)ccn1` (stereo not given), for which the cytotoxicity at 70.5 h is 6.88%. `Cc1oc(C)c(C(=O)N2CCCN(Cc3cscn3)CC2)c1C`: the cytotoxicity at 70.5 h turned out to be 5.51%.

Consider `CC(C)(CN1CCOCC1)CN1CCC(Cc2cccc(CO)c2)C1` (stereo not given), for which the cytotoxicity at 70.5 h worked out at 17.8%.

As to `CN(c1nc(Cn2cnccc2=O)cs1)C1CC1`, the cytotoxicity at 70.5 h is -4.18%. `Cn1cccc1C(=O)N1CCc2ncnc(C3CC3)c2CC1`: the cytotoxicity at 70.5 h is -0.695%. Regarding `COCCS(=O)(=O)NC(=O)c1nnn(-c2ccc(F)cc2)c1C1CC1`, the cytotoxicity at 70.5 h was determined as 2%. As for `CCc1c(C)nc2cc(C3CCN(CCc4ccccc4)C3)nn2c1O` (stereo not given), the cytotoxicity at 70.5 h is -0.223%. With `CCS(=O)(=O)c1ccccc1N1CCC(NC(=O)NC2CCCC2)CC1`, the cytotoxicity at 70.5 h was -14.2%. On to `CN1CCC(NC(=O)NCc2csc(Br)c2)CC1`, for which the cytotoxicity at 70.5 h was -10.7%. Under `O=C(OCc1cccs1)c1cccc(C(=O)N2CCCC2)n1` stands -8.17%.

For the molecule `Cc1nn(C)c(C)c1C1CCCN1CC(=O)Nc1ccncc1` (stereo not given), the cytotoxicity at 70.5 h was -7.94%. `CCC(CNC(C)=O)(OC)c1ccccc1` (stereo not given): the cytotoxicity at 70.5 h was -6.06%. On to `C[C@@H]1CN(Cc2ccncc2)C[C@]1(C)O`, for which the cytotoxicity at 70.5 h was -18%. Take `CC(C)CCN1C[C@H]2C[C@H](C(=O)N3CCCC3)[C@@H](C1)O2`: the cytotoxicity at 70.5 h was -5.2%.
